Data reported in PMC5218480 (PLoS ONE, 2017).

Test system: MV-4-11 cells
Experiment: Gene expression microarray analysis (Affymetrix PrimeView) and GSEA
Format: cell-based, human
Design: RFU PODN (11730768_x_at) / Fold change /veh PODN (11730768_x_at) / RFU LINC00158 (11744669_a_at) / Fold change /veh LINC00158 (11744669_a_at) / RFU DUSP10 (11751237_a_at) / Fold change /veh DUSP10 (11751237_a_at) / RFU ID3 (11757404_x_at) / Fold change /veh ID3 (11757404_x_at) / RFU PLEKHG5 (11737974_s_at) / Fold change /veh PLEKHG5 (11737974_s_at) / RFU LRRC4B (11730491_at) / Fold change /veh LRRC4B (11730491_at) / RFU GIMAP4 (11747438_a_at) / Fold change /veh GIMAP4 (11747438_a_at) / RFU KRT8 (11758183_x_at) / Fold change /veh KRT8 (11758183_x_at) / RFU CNN1 (11734310_a_at) / Fold change /veh CNN1 (11734310_a_at) / RFU VPS37D (11726825_at) / Fold change /veh VPS37D (11726825_at) / RFU C10orf10 (11716522_x_at) / Fold change /veh C10orf10 (11716522_x_at) / RFU KIR2DL2 /// KIR2DL4 /// KIR2DL5A /// KIR2DL5B /// KIR2DS1 /// KIR2DS2 /// KIR2DS3 /// KIR2DS4 /// KIR3DL3 /// KIR3DL3 /// KIR3DS1 (11738374_at) / Fold change /veh KIR2DL2 /// KIR2DL4 /// KIR2DL5A /// KIR2DL5B /// KIR2DS1 /// KIR2DS2 /// KIR2DS3 /// KIR2DS4 /// KIR3DL3 /// KIR3DL3 /// KIR3DS1 (11738374_at) / RFU C1QL1 (11718748_at) / Fold change /veh C1QL1 (11718748_at) / RFU TMPRSS4 (11747572_a_at) / Fold change /veh TMPRSS4 (11747572_a_at) / RFU HAMP (11756126_x_at) / Fold change /veh HAMP (11756126_x_at) / RFU RNFT2 (11725882_a_at) / Fold change /veh RNFT2 (11725882_a_at) / RFU NR4A2 (11747474_a_at) / Fold change /veh NR4A2 (11747474_a_at) / RFU ABCC12 (11746883_a_at) / Fold change /veh ABCC12 (11746883_a_at) / RFU TMEM136 (11760407_x_at) / Fold change /veh TMEM136 (11760407_x_at) / RFU CLDN22 /// WWC2 (11732394_at) / Fold change /veh CLDN22 /// WWC2 (11732394_at) / RFU HLA-DPB1 (11760878_x_at) / Fold change /veh HLA-DPB1 (11760878_x_at) / RFU SPINT1 (11716480_a_at) / Fold change /veh SPINT1 (11716480_a_at) / RFU GAP43 (11754022_s_at) / Fold change /veh GAP43 (11754022_s_at) / RFU A4GNT (11735810_at) / Fold change /veh A4GNT (11735810_at) / RFU PRB3 (11715151_x_at) / Fold change /veh PRB3 (11715151_x_at) / RFU TUBB4B (11761932_at) / Fold change /veh TUBB4B (11761932_at) / RFU CAPN14 (11732068_a_at) / Fold change /veh CAPN14 (11732068_a_at) / RFU TMCC2 (11721928_a_at) / Fold change /veh TMCC2 (11721928_a_at) / RFU IRGQ (11745062_a_at) / Fold change /veh IRGQ (11745062_a_at) / RFU FAM174B (11720279_a_at) / Fold change /veh FAM174B (11720279_a_at) / RFU TMPRSS4 (11748680_a_at) / Fold change /veh TMPRSS4 (11748680_a_at) / RFU FAM212B (11763350_a_at) / Fold change /veh FAM212B (11763350_a_at) / RFU PLEKHG5 (11743358_a_at) / Fold change /veh PLEKHG5 (11743358_a_at) / RFU ZSCAN30 (11745921_a_at) / Fold change /veh ZSCAN30 (11745921_a_at) / RFU CMKLR1 (11741424_a_at) / Fold change /veh CMKLR1 (11741424_a_at) / RFU LOC101060620 /// MAPK8IP1 (11723275_at) / Fold change /veh LOC101060620 /// MAPK8IP1 (11723275_at) / RFU SPTSSB (11747773_x_at) / Fold change /veh SPTSSB (11747773_x_at) / RFU PRSS12 (11739890_at) / Fold change /veh PRSS12 (11739890_at) / RFU BIN1 (11741810_x_at) / Fold change /veh BIN1 (11741810_x_at) / RFU WNT11 (11732464_a_at) / Fold change /veh WNT11 (11732464_a_at) / RFU C10orf10 (11716521_a_at) / Fold change /veh C10orf10 (11716521_a_at) / RFU C5orf56 (11738089_at) / Fold change /veh C5orf56 (11738089_at) / RFU CYB561 (11721691_x_at) / Fold change /veh CYB561 (11721691_x_at) / RFU ANKRD19P (11752326_a_at) / Fold change /veh ANKRD19P (11752326_a_at) / RFU OR2T12 /// OR2T33 /// OR2T8 (11738714_s_at) / Fold change /veh OR2T12 /// OR2T33 /// OR2T8 (11738714_s_at) / RFU VCAN (11748164_a_at) / Fold change /veh VCAN (11748164_a_at) / RFU JSRP1 (11732532_at) / Fold change /veh JSRP1 (11732532_at) / RFU KRTAP10-11 (11738290_x_at) / Fold change /veh KRTAP10-11 (11738290_x_at) / RFU MYO3A (11730013_a_at) / Fold change /veh MYO3A (11730013_a_at) / RFU EBF3 (11725865_a_at) / Fold change /veh EBF3 (11725865_a_at) / RFU CAMK2N1 (11719241_x_at) / Fold change /veh CAMK2N1 (11719241_x_at) / RFU C5orf56 (11738088_a_at) / Fold change /veh C5orf56 (11738088_a_at) / RFU OLFML3 (11715873_a_at) / Fold change /veh OLFML3 (11715873_a_at) / RFU LOC100653217 /// NTM (11731650_a_at) / Fold change /veh LOC100653217 /// NTM (11731650_a_at) / RFU MAPK11 (11762145_a_at) / Fold change /veh MAPK11 (11762145_a_at) / RFU FIZ1 (11724087_x_at) / Fold change /veh FIZ1 (11724087_x_at) / RFU OASL (11726364_x_at) / Fold change /veh OASL (11726364_x_at) / RFU SOX15 (11748057_x_at) / Fold change /veh SOX15 (11748057_x_at) / RFU CD79A (11719716_a_at) / Fold change /veh CD79A (11719716_a_at) / RFU HIST1H1D (11736915_at) / Fold change /veh HIST1H1D (11736915_at) / RFU CASKIN2 (11723855_a_at) / Fold change /veh CASKIN2 (11723855_a_at) / RFU LOC730098 (11760151_x_at) / Fold change /veh LOC730098 (11760151_x_at) / RFU OR4N2 (11742367_at) / Fold change /veh OR4N2 (11742367_at) / RFU PRRT2 (11749266_a_at) / Fold change /veh PRRT2 (11749266_a_at) / RFU SNX32 (11753110_a_at) / Fold change /veh SNX32 (11753110_a_at) / RFU CDHR5 (11726645_a_at) / Fold change /veh CDHR5 (11726645_a_at) / RFU RCAN1 (11760418_a_at) / Fold change /veh RCAN1 (11760418_a_at) / RFU FAM167A (11723789_a_at) / Fold change /veh FAM167A (11723789_a_at) / RFU FAM26E (11764081_at) / Fold change /veh FAM26E (11764081_at) / RFU ISYNA1 (11749810_s_at) / Fold change /veh ISYNA1 (11749810_s_at) / RFU ACY1 (11761880_at) / Fold change /veh ACY1 (11761880_at) / RFU 11764098_at / Fold change /veh 11764098_at / RFU SAMD14 (11745864_x_at) / Fold change /veh SAMD14 (11745864_x_at) / RFU NPB (11741838_a_at) / Fold change /veh NPB (11741838_a_at) / RFU TMPRSS6 (11731388_a_at) / Fold change /veh TMPRSS6 (11731388_a_at) / RFU KRTAP10-2 (11738614_at) / Fold change /veh KRTAP10-2 (11738614_at) / RFU ARHGAP8 /// PRR5-ARHGAP8 (11727945_x_at) / Fold change /veh ARHGAP8 /// PRR5-ARHGAP8 (11727945_x_at) / RFU KRTAP5-7 /// NADSYN1 (11734609_at) / Fold change /veh KRTAP5-7 /// NADSYN1 (11734609_at) / RFU RASL12 (11751679_a_at) / Fold change /veh RASL12 (11751679_a_at) / RFU CDKN2B (11736163_a_at) / Fold change /veh CDKN2B (11736163_a_at) / RFU PRF1 (11729649_at) / Fold change /veh PRF1 (11729649_at) / RFU, ZNF638 /// ZNF638-IT1 / Fold change vs veh, ZNF638 /// ZNF638-IT1 / RFU, PANK3 / Fold change vs veh, PANK3 / RFU, SH3YL1 / Fold change vs veh, SH3YL1 / RFU, ZEB2 / Fold change vs veh, ZEB2 / RFU, NRIP1 / Fold change vs veh, NRIP1 / RFU, PTTG1IP / Fold change vs veh, PTTG1IP / RFU, CAPN2 / Fold change vs veh, CAPN2 / RFU, MED14 / Fold change vs veh, MED14 / RFU, SNORA58 / Fold change vs veh, SNORA58 / RFU, C1orf63 / Fold change vs veh, C1orf63 / RFU, LRRFIP1 / Fold change vs veh, LRRFIP1 / RFU, NDUFAF7 / Fold change vs veh, NDUFAF7 / RFU, SLC12A2 / Fold change vs veh, SLC12A2 / RFU, IBTK / Fold change vs veh, IBTK / RFU, ESF1 / Fold change vs veh, ESF1 / Fold change vs veh, TMEM50B / RFU, TAOK1 / Fold change vs veh, TAOK1 / RFU, ACBD3 / Fold change vs veh, ACBD3 / RFU, TMA16 / Fold change vs veh, TMA16 / RFU, RWDD3 / Fold change vs veh, RWDD3 / RFU, BCAT1 / Fold change vs veh, BCAT1 / RFU, EDEM3 / Fold change vs veh, EDEM3 / RFU, TMEM33 / Fold change vs veh, TMEM33 / RFU, WDR75 / Fold change vs veh, WDR75 / RFU, AHCTF1 / Fold change vs veh, AHCTF1 / RFU, TFRC / Fold change vs veh, TFRC / RFU, ZDHHC17 / Fold change vs veh, ZDHHC17 / RFU, NOM1 / Fold change vs veh, NOM1 / RFU, ARL8B / Fold change vs veh, ARL8B / RFU, ZBTB11 / Fold change vs veh, ZBTB11 / RFU, TAMM41 / Fold change vs veh, TAMM41 / RFU, KIAA1704 /// LOC100996395 / Fold change vs veh, KIAA1704 /// LOC100996395 / RFU, ING1 / Fold change vs veh, ING1 / RFU, TRMT61B / Fold change vs veh, TRMT61B / RFU, FUBP3 / Fold change vs veh, FUBP3 / RFU, TP53 / Fold change vs veh, TP53 / RFU, TNKS2 / Fold change vs veh, TNKS2 / RFU, ZFP14 / Fold change vs veh, ZFP14 / RFU, ACTR2 / Fold change vs veh, ACTR2 / RFU, PPP3R1 / Fold change vs veh, PPP3R1 / RFU, PIK3R1 / Fold change vs veh, PIK3R1 / RFU, HNRNPA1 / Fold change vs veh, HNRNPA1 / RFU, RNF170 / Fold change vs veh, RNF170 / RFU, ZNF28 / Fold change vs veh, ZNF28 / RFU, RNGTT / Fold change vs veh, RNGTT / RFU, OGT / Fold change vs veh, OGT / RFU, BRD1 / Fold change vs veh, BRD1 / RFU, MARS / Fold change vs veh, MARS / RFU, ZNF655 / Fold change vs veh, ZNF655 / RFU, FAHD1 / Fold change vs veh, FAHD1 / RFU, BDP1 / Fold change vs veh, BDP1 / RFU, LRRCC1 / Fold change vs veh, LRRCC1 / RFU, ARID1A / Fold change vs veh, ARID1A / RFU, ZNF146 / Fold change vs veh, ZNF146 / RFU, ZNF330 / Fold change vs veh, ZNF330 / RFU, GPN3 / Fold change vs veh, GPN3 / RFU, C9orf123 / Fold change vs veh, C9orf123 / RFU, N4BP2L2 / Fold change vs veh, N4BP2L2 / RFU, ARFIP1 / Fold change vs veh, ARFIP1 / RFU, FAM179B / Fold change vs veh, FAM179B / RFU, BCL10 / Fold change vs veh, BCL10 / RFU, UHRF1BP1L / Fold change vs veh, UHRF1BP1L / RFU, BET1 / Fold change vs veh, BET1 / RFU, CNOT2 / Fold change vs veh, CNOT2 / RFU, ZNF268 / Fold change vs veh, ZNF268 / Fold change vs veh, ZNF507 / RFU, DGCR2 / Fold change vs veh, DGCR2 / RFU, WDSUB1 / Fold change vs veh, WDSUB1 / Fold change vs veh, HSP90B1 /// MIR3652 / RFU, ADSS / Fold change vs veh, ADSS / RFU, GK / Fold change vs veh, GK / RFU, ZNF148 / Fold change vs veh, ZNF148 / RFU, TAF9 / Fold change vs veh, TAF9 / RFU, SLC1A5 / Fold change vs veh, SLC1A5 / RFU, SLMO2 / Fold change vs veh, SLMO2 / RFU, ABCC4 / Fold change vs veh, ABCC4 / RFU, LOC101060439 /// RAP1B / Fold change vs veh, LOC101060439 /// RAP1B / RFU, RFX7 / Fold change vs veh, RFX7 / RFU, GTPBP10 / Fold change vs veh, GTPBP10 / RFU, CNEP1R1 / Fold change vs veh, CNEP1R1 / RFU, BIVM-ERCC5 /// ERCC5 / Fold change vs veh, BIVM-ERCC5 /// ERCC5 / RFU, ILF3 / Fold change vs veh, ILF3 / RFU 11762660_at / Fold change /veh 11762660_at / RFU VCAN (11757783_s_at) / Fold change /veh VCAN (11757783_s_at) / RFU DDX43 (11728927_at) / Fold change /veh DDX43 (11728927_at) / RFU KRT8 (11758188_x_at) / Fold change /veh KRT8 (11758188_x_at) / RFU NKD1 (11759106_at) / Fold change /veh NKD1 (11759106_at) / RFU SRD5A1 (11742802_a_at) / Fold change /veh SRD5A1 (11742802_a_at) / RFU TPSAB1 /// TPSB2 (11721975_s_at) / Fold change /veh TPSAB1 /// TPSB2 (11721975_s_at) / RFU GSTM3 (11746129_a_at) / Fold change /veh GSTM3 (11746129_a_at) / RFU IL23R (11737362_x_at) / Fold change /veh IL23R (11737362_x_at) / RFU TMEM51 (11727254_a_at) / Fold change /veh TMEM51 (11727254_a_at) / RFU PIWIL2 (11732686_x_at) / Fold change /veh PIWIL2 (11732686_x_at) / RFU ORM1 (11744905_x_at) / Fold change /veh ORM1 (11744905_x_at) / RFU CCDC152 (11743942_at) / Fold change /veh CCDC152 (11743942_at) / RFU ECM1 (11717891_a_at) / Fold change /veh ECM1 (11717891_a_at) / RFU IL23R (11748794_a_at) / Fold change /veh IL23R (11748794_a_at) / RFU TNFAIP8L3 (11732012_x_at) / Fold change /veh TNFAIP8L3 (11732012_x_at) / RFU MBOAT4 (11741988_at) / Fold change /veh MBOAT4 (11741988_at) / RFU 11764193_at / Fold change /veh 11764193_at / RFU TMEM53 (11763286_at) / Fold change /veh TMEM53 (11763286_at) / RFU MAGEB2 (11727129_at) / Fold change /veh MAGEB2 (11727129_at) / RFU TMEM200A (11744735_a_at) / Fold change /veh TMEM200A (11744735_a_at) / RFU CCDC152 (11751479_a_at) / Fold change /veh CCDC152 (11751479_a_at) / RFU FAM211A (11726209_a_at) / Fold change /veh FAM211A (11726209_a_at) / RFU RGS16 (11746705_a_at) / Fold change /veh RGS16 (11746705_a_at) / RFU VCAN (11755009_s_at) / Fold change /veh VCAN (11755009_s_at) / RFU RHOB (11743442_s_at) / Fold change /veh RHOB (11743442_s_at) / RFU RGS16 (11720943_a_at) / Fold change /veh RGS16 (11720943_a_at) / RFU RGS16 (11720944_at) / Fold change /veh RGS16 (11720944_at) / RFU, VPS4B / Fold change vs veh, VPS4B / RFU, CREB1 / Fold change vs veh, CREB1 / RFU, DNAJC13 / Fold change vs veh, DNAJC13 / RFU, GNAQ / Fold change vs veh, GNAQ / RFU, CDK5R1 / Fold change vs veh, CDK5R1 / RFU, ZRANB3 / Fold change vs veh, ZRANB3 / RFU, CUL4A / Fold change vs veh, CUL4A / RFU, CCNY / Fold change vs veh, CCNY / RFU, UFL1 / Fold change vs veh, UFL1 / RFU, COG3 / Fold change vs veh, COG3 / RFU, DIAPH2 / Fold change vs veh, DIAPH2 / RFU, SKA2 / Fold change vs veh, SKA2 / RFU, AFF3 / Fold change vs veh, AFF3 / RFU, LMF1 / Fold change vs veh, LMF1 / RFU, IPO11 / Fold change vs veh, IPO11 / RFU, DFFB / Fold change vs veh, DFFB / RFU, FOXP1 / Fold change vs veh, FOXP1 / RFU, CARD8 / Fold change vs veh, CARD8 / RFU, STRN3 / Fold change vs veh, STRN3 / RFU, ADK / Fold change vs veh, ADK / RFU, RASSF2 / Fold change vs veh, RASSF2 / RFU, WIPF1 / Fold change vs veh, WIPF1 / RFU, LARP1B / Fold change vs veh, LARP1B / RFU, RASA1 / Fold change vs veh, RASA1 / RFU, RB1 / Fold change vs veh, RB1 / RFU, PPFIA1 / Fold change vs veh, PPFIA1 / RFU, MAT2A / Fold change vs veh, MAT2A / RFU, CCT5 / Fold change vs veh, CCT5 / RFU, WDR92 / Fold change vs veh, WDR92 / RFU, CUX1 / Fold change vs veh, CUX1 / RFU, TTC7A / Fold change vs veh, TTC7A / RFU, TMEM135 / Fold change vs veh, TMEM135 / RFU, DEPTOR / Fold change vs veh, DEPTOR / RFU, CPM / Fold change vs veh, CPM / RFU, DNAJB6 / Fold change vs veh, DNAJB6 / RFU, CACNA2D3 / Fold change vs veh, CACNA2D3 / RFU, DTX4 / Fold change vs veh, DTX4 / RFU, TFCP2 / Fold change vs veh, TFCP2 / RFU, GMCL1 /// GMCL1P1 / Fold change vs veh, GMCL1 /// GMCL1P1 / RFU, AEBP2 / Fold change vs veh, AEBP2 / RFU, SNHG1 /// SNORD22 /// SNORD25 /// SNORD26 /// SNORD27 /// SNORD28 /// SNORD29 /// SNORD31 / Fold change vs veh, SNHG1 /// SNORD22 /// SNORD25 /// SNORD26 /// SNORD27 /// SNORD28 /// SNORD29 /// SNORD31 / Fold change (Aza/veh), C12orf56 (ProbeSet 11735607_a_at) / Fold change (ACY-1035/veh), C12orf56 (ProbeSet 11735607_a_at) / Fold change (Aza/veh), FGFR1OP (ProbeSet 11751329_s_at) / Fold change (ACY-1035/veh), FGFR1OP (ProbeSet 11751329_s_at) / Fold change (Aza/veh), VPS36 (ProbeSet 11739960_a_at) / Fold change (ACY-1035/veh), VPS36 (ProbeSet 11739960_a_at) / RFU SYPL1 (11715823_x_at) / Fold change /veh SYPL1 (11715823_x_at) / RFU IGFBP7 (11715501_s_at) / Fold change /veh IGFBP7 (11715501_s_at) / RFU REEP3 (11722064_at) / Fold change /veh REEP3 (11722064_at) / RFU IGLL1 (11728026_x_at) / Fold change /veh IGLL1 (11728026_x_at): dose or concentration left out as unconfirmed
Conditions: MV-4-11 cells, 48 hours

Nc1ncn([C@@H]2O[C@H](CO)[C@@H](O)[C@H]2O)c(=O)n1 [azacitidine] was tested. Which “Fold change /veh SPINT1 (11716480_a_at)” value did it give?
Its value is 1.00.
